Source: US20220313780A1, “METHODS AND COMPOSITIONS FOR TREATING INFLAMMATORY CONDITIONS” (THE SCRIPPS RESEARCH INSTITUTE, priority 2019, published 2022)
No end group written: not given here.

Tested on: caspase 1
Assay: Caspase 1 activity assay in PMA-differentiated THP1 cells treated with LPS and ATP
Type: cell-based, human
Conditions: for anti-inflammatory activities relative to that of TR47: summary statement on exemplified TR47 fragments and variants
Method: THP1-null (THP1) cells were plated at a final concentration of 1×10^6/mL in 96 well plates and incubated with PMA (0.5 μM) for 3 hours 37° C. in supplemented RPMI. Media was subsequently changed every 24 hours for 3 days. Various subsets of wells were selected and cells were treated for 60 minutes at 37° C. in serum-free RPMI with: (A) APC (4 μg/mL), TR47 (50 μM-2 nM), scrTR47 (50 μM), SFLLRN (50 μM), TFLLRN (50 μM); (B) P3R (50 μM-500 nM), P3K (50 μM); (C) APC (4 or 1 μg/mL), TR47 (8 nM), P3R (500 nM) or TR47+P3R (8 nM and 500 nM, respectively); (D) TR47 (0-128 nM) (●)±P3R (500 nM) (□); (E) P3R (0-500 nM) (●)±TR47 (1 nM) (□). Following DPBS wash, cells were incubated with LPS (1 μg/mL) for 3 hours at 37° C. in serum-free RPMI. After a DPBS wash, cells were incubated with ATP (5 mM) in the presence or absence of 10 μM YVAD (caspase 1 inhibitor) or 2.5 μM ZVAD (pan-caspase inhibitor) for 45 minutes at 37° C., prior to performing the caspase 1 activity assay following manufacturer's directions measuring luminescence (relative luminescent units, RLU). (D & E) Experimental caspase 1 activity was normalized to YVAD (caspase 1 inhibitor) luminescence units. (A-E) Data points represent mean±S.D. of at least 3 independent experiments. *P<0.05 (vs. LPS+ATP); #P<0.05 (vs. LPS+ATP & APC, TR47 or P3R); **P<0.005 (vs. LPS+ATP & TR47+500 nM P3R); n.s. not significant.
THP1 cells were plated at a final concentration of 1×10^6/mL in 96 well plates and incubated with PMA (0.5 μM) for 3 hours 37° C. in supplemented RPMI. Media was subsequently changed every 24 hours for 3 days. Selected wells were treated with APC (4 μg/mL), (A) 50 μM or (B) 2 μM of P3R, P3Rm, P3R 51-65, P3R 51-59, P3R 54-59 or P3R 59-65 for 1 hour, washed with DPBS, and incubated with LPS (1 μg/mL) for 3 hours at 37° C. in serum-free RPMI. Cells were washed with DPBS and incubated with ATP (5 mM) in the presence or absence of 10 μM YVAD (caspase 1 inhibitor; C1i) or 2.5 μM ZVAD (pan-caspase inhibitor; pCi) for 45 minutes at 37° C., prior to performing the caspase 1 activity assay following manufacturer's directions measuring luminescence (relative luminescent units, RLU). (C) Diagram showing the PAR3 sequence, peptide sequences and relative (anti-inflammatory) activity. These include sequences of P3R (SEQ ID NO:4), P3Rm (SEQ ID NO:8), P3R 51-65 (SEQ ID NO:9), P3R 51-59 (SEQ ID NO:10), P3R 54-59 (SEQ ID NO:54) and P3R 59-65 (SEQ ID NO:55).
THP1 cells were plated at a final concentration of 1×10^6/mL in 96 well plates and incubated with PMA (0.5 μM) for 3 hours 37° C. in supplemented RPMI. Media was subsequently changed every 24 hours for 3 days. Selected wells were treated with APC (4 μg/mL), TR47, in (A) 9-mer (TR47 9-mer; NPNDKYEPF (SEQ ID NO:36)) or Ac-TR47 (Acylated TR47) at either 50 μM or 10 nM or (B) 50 μM of 16-mer-TR47, 8-mer-TR47, 6-mer-TR47, TR47 N−1, TR47 N−2, TR47 N−5, TR47AQ, TR47AD, TR47AA or TR48-54 for 1 hour, washed with DPBS, and incubated with LPS (1 μg/mL) for 3 hours at 37° C. in serum-free RPMI. Cells were washed with DPBS and incubated with ATP (5 mM) in the presence or absence of 10 μM YVAD (caspase 1 inhibitor; C1i) or 2.5 μM ZVAD (pan-caspase inhibitor; pCi) for 45 minutes at 37° C., prior to performing the caspase 1 activity assay following manufacturer's directions measuring luminescence (relative luminescent units, RLU). #P<0.001 (vs. LPS+ATP), **P<0.005 (vs. LPS+ATP), * (P<0.05 vs. LPS+ATP). (C) Diagram showing the PAR1 sequence, peptide sequences and relative (anti-inflammatory) activity. These include sequences of TR47 (SEQ ID NO:7), Ac-TR47 (SEQ ID NO:56), 16-mer-TR47 (SEQ ID NO:43), 9-mer-TR47 (SEQ ID NO:36), 8-mer-TR47 (SEQ ID NO:35), 6-mer-TR47 (SEQ ID NO:33), TR47 N−1 (SEQ ID NO:47), TR47 N−2 (SEQ ID NO:51), TR47 N−5 (SEQ ID NO:48), TR47AQ (SEQ ID NO:49), TR47AD (SEQ ID NO:52), TR47AA (SEQ ID NO:50) and TR48-54 (SEQ ID NO:53). […]

[1] = peptide 50 μM for 60 min before LPS (1 μg/mL) and ATP (5 mM), THP1 cells

Molecule	caspase 1 activity [1]	anti-inflammatory activities relative to that of TR47	further results
CC(C)(O)c1coc(S(=O)(=O)NC(=O)Nc2c3c(cc4c2CCC4)CCC3)c1 [MCC950, reference compound]			caspase 1 activity (NLRP3 inhibitor MCC950 10 μM for 30 minutes after LPS, THP1-null cells treated with APC, TR47 or P3R): a significant reduction in caspase 1 activity across all treatments tested
APNDKYEPFWEDEEKNESGL [TR47ΔA]	similarly reduced caspase 1 activity	maintain substantial anti-inflammatory activities relative to that of TR47	
Ac-TR47: Acylated TR47 (N-terminus of TR47 acylated) (Ac-NPNDKYEPF; also: N-terminal acylation, acyl group not given here)	no reduction in caspase 1 activity was observed		
FPFSALEGWTGATIT [P3R 51-65]			caspase-1 activity (PAR3 peptide 0 to 16 nM in the presence or absence of 1 nM P1(47-66)): only in the presence of 1 nM P1(47-66) was a significant reduction in caspase-1 activity seen; caspase 1 activity (peptide 50 μM for 60 min before LPS (1 μg/mL) and ATP (5 mM), THP1 cells, listed as P3(51-65)): alone is anti-inflammatory at relatively high concentrations; anti-inflammatory effect (caspase-1 activity) (peptide at 200 nM): neither the isolated PAR1-derived peptide nor the isolated PAR3-derived peptide had an any anti-inflammatory effect
GAPPNSFEEFPFS [P3Rm]	a significant reduction in caspase 1 activity was observed		synergistic anti-inflammatory activity (caspase 1 activity) (P3Rm (0 or 16 nM) combined with TR47 (1 nM), FIG. 6A): synergy observed; caspase 1 activity (peptide 2 μM for 1 hour before LPS and ATP, THP1 cells): this effect was lost
NDKYEPFWEDEEKNESGL [TR47 N−2]	a loss in inhibition of caspase 1 activity		
NPNDKY [6-mer TR47]	lost its inhibitory activity		
NPNDKYEP [8-mer TR47]	significantly reduced caspase 1 activity	maintain substantive anti-inflammatory activities relative to that of TR47	
NPNDKYEPF [9-mer]	reduced caspase 1 activity similar to the 20-mer TR47	maintain substantive anti-inflammatory activities relative to that of TR47	anti-inflammatory effect (caspase-1 activity) (peptide at 200 nM): neither the isolated PAR1-derived peptide nor the isolated PAR3-derived peptide had an any anti-inflammatory effect; anti-inflammatory effect (caspase-1 activity) (peptide at 500 nM): alone was anti-inflammatory
NPNDKYEPFWEDEEKN [16-mer TR47]	significantly reduced caspase 1 activity	maintain substantive anti-inflammatory activities relative to that of TR47	
P3R 54-59: fragment of PAR3-derived peptide P3R, residues 54-59 (SALEGW; UniProt O00254 54-59, looked up, fragment)	only partially reduced caspase 1 activity		
P3R 59-65: fragment of PAR3-derived peptide P3R, residues 59-65 (WTGATIT; UniProt O00254 59-65, looked up, fragment)	only partially reduced caspase 1 activity		
PNDKYEPFWEDEEKNESGL [TR47 N−1]	still reduced caspase 1 activity	maintain substantial anti-inflammatory activities relative to that of TR47	synergistic anti-inflammatory activity (caspase 1 activity) (TR47(N−1) (0 or 4 nM) combined with 500 nM P3R, FIG. 6B): synergy observed
QPNDKYEPFWEDEEKNESGL [TR47ΔQ]	similarly reduced caspase 1 activity	maintain substantial anti-inflammatory activities relative to that of TR47	
SFLLRN [reference compound]	neither a scrambled TR47 nor the peptides, SFLLRN or TFLLRN which resemble the novel N-terminal amino acid sequence generated by thrombin's PAR1 cleavage at Arg41 had any effect on caspase 1 activity		
TFLLRN (SFLLRN; UniProt P25116 42-47, looked up, fragment) [reference compound]	neither a scrambled TR47 nor the peptides, SFLLRN or TFLLRN which resemble the novel N-terminal amino acid sequence generated by thrombin's PAR1 cleavage at Arg41 had any effect on caspase 1 activity		
TR48-54: truncated TR-peptide, removing one amino acid from the N-terminus and part of the C-terminus (FEEFPFS; UniProt O00254 48-54, looked up, fragment)	did not reduce caspase 1 activity		
YEPFWEDEEKNESGL [TR47 N−5]	a reduction in caspase 1 activity was observed	maintain substantial anti-inflammatory activities relative to that of TR47	
